Results published in PubChem BioAssay AID330 (DTP/NCI, 2004).
Several values for one entry are separate records, joined by “and”; a condition that tells them apart may be missing. Equal values may be shown once. Toxic doses and inconclusive results are not listed.

Tested on: P388 leukemia ip, CD2F1 mice, survival T/C
Assay: NCI In Vivo Anticancer Drug Screen. Data for tumor model P388 Leukemia (intraperitoneal) in CD2F1 (CDF1) mice
Settings: endpoint: median survival time, higher = longer survival
Summary of the method: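 Mice carrying the transplanted tumor received test compound or vehicle. Survival was recorded in each group, and the value is the treated-group measurement divided by that of the vehicle-treated control group.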

[1] = dose: 50.0 mg/kg/injection, schedule: Q01DX005 (ip), vehicle: saline with Tween-80
[2] = dose: 100.0 mg/kg/injection, schedule: Q01DX005 (ip), vehicle: saline with Tween-80
[3] = dose: 50.0 mg/kg/injection, schedule: Q01DX009 (ip), vehicle: saline with Tween-80
[4] = dose: 100.0 mg/kg/injection, schedule: Q01DX009 (ip), vehicle: saline with Tween-80
[5] = dose: 60.0 mg/kg/injection, schedule: Q01DX005 (ip), vehicle: saline with Tween-80
[6] = dose: 120.0 mg/kg/injection, schedule: Q01DX005 (ip), vehicle: saline with Tween-80

Compound: COc1c(CBr)c(CBr)c(OC)c2c1C(=O)c1ccccc1C2=O
- T/C (dose: 12.5 mg/kg/injection, schedule: Q01DX005 (ip), vehicle: saline with Tween-80): 100 % of control
- T/C (dose: 25.0 mg/kg/injection, schedule: Q01DX005 (ip), vehicle: saline with Tween-80): 99 % of control
- T/C [1]: 100 % of control and 112 % of control
- T/C [2]: 95 % of control

Compound: O=C(/C=C/c1ccccc1)c1c2ccccc2cc2ccccc12
- T/C (dose: 100.0 mg/kg/injection, schedule: Q01DX001 (ip), vehicle: saline with Tween-80): 107 % of control
- T/C (dose: 200.0 mg/kg/injection, schedule: Q01DX001 (ip), vehicle: saline with Tween-80): 100 % of control
- T/C (dose: 400.0 mg/kg/injection, schedule: Q01DX001 (ip), vehicle: saline with Tween-80): 91 % of control

Compound: CCOc1ccc(-n2c(=O)c(N=Nc3ccc(OC)cc3)c(O)n(-c3ccccc3Cl)c2=S)cc1
- T/C (dose: 50.0 mg/kg/injection, schedule: Q01DX001 (ip), vehicle: Klucel (hydroxypropylcellulose) (HPC)): 97 % of control
- T/C (dose: 100.0 mg/kg/injection, schedule: Q01DX001 (ip), vehicle: Klucel (hydroxypropylcellulose) (HPC)): 94 % of control
- T/C (dose: 200.0 mg/kg/injection, schedule: Q01DX001 (ip), vehicle: Klucel (hydroxypropylcellulose) (HPC)): 94 % of control

Compound: CC1(C)OC2C3COC(O3)C(O)C2O1 (stereo unspecified)
- T/C (dose: 100.0 mg/kg/injection, schedule: Q01DX001 (ip), vehicle: saline): 107 % of control
- T/C (dose: 200.0 mg/kg/injection, schedule: Q01DX001 (ip), vehicle: saline): 98 % of control
- T/C (dose: 400.0 mg/kg/injection, schedule: Q01DX001 (ip), vehicle: saline): 112 % of control

Compound: CCCCCCCCCCCCSC1=C(Cl)C(=O)C(OC)=C(OC)C1=O
- T/C (dose: 6.0 mg/kg/injection, schedule: Q01DX Z (ip), vehicle: saline): 103 % of control
- T/C (dose: 6.25 mg/kg/injection, schedule: Q01DX009 (ip), vehicle: saline with Tween-80): 105 % of control
- T/C (dose: 12.0 mg/kg/injection, schedule: Q01DX Z (ip), vehicle: saline): 100 % of control
- T/C (dose: 12.5 mg/kg/injection, schedule: Q01DX009 (ip), vehicle: saline with Tween-80): 108 % of control
- T/C (dose: 25.0 mg/kg/injection, schedule: Q01DX009 (ip), vehicle: saline with Tween-80): 121 % of control
- T/C (dose: 25.0 mg/kg/injection, schedule: Q01DX Z (ip), vehicle: saline): 100 % of control
- T/C [3]: 119 % of control
- T/C (dose: 50.0 mg/kg/injection, schedule: Q01DX Z (ip), vehicle: saline): 92 % of control

Compound: CC(C)CNc1ncnc2n[nH]nc12
- T/C [1]: 100 % of control
- T/C [2]: 103 % of control
- T/C (dose: 200.0 mg/kg/injection, schedule: Q01DX005 (ip), vehicle: saline with Tween-80): 100 % of control

Compound: CC(=O)OC1=C2C(C)(C)OC3CC(=O)OCC23C2CCC3(C)C(c4ccoc4)OC(=O)C4OC43C2(C)C1=O (stereo unspecified)
- T/C (dose: 0.5 mg/kg/injection, schedule: Q01DX009 (ip), vehicle: saline + alcohol): 113 % of control
- T/C (dose: 1.0 mg/kg/injection, schedule: Q01DX009 (ip), vehicle: saline + alcohol): 110 % of control
- T/C (dose: 2.0 mg/kg/injection, schedule: Q01DX009 (ip), vehicle: saline + alcohol): 107 % of control
- T/C (dose: 4.0 mg/kg/injection, schedule: Q01DX009 (ip), vehicle: saline + alcohol): 101 % of control

Compound: COc1ccc(N=Cc2cccs2)cc1
- T/C (dose: 50.0 mg/kg/injection, schedule: Q01DX009 (ip), vehicle: Klucel (hydroxypropylcellulose) (HPC)): 94 % of control
- T/C (dose: 100.0 mg/kg/injection, schedule: Q01DX009 (ip), vehicle: Klucel (hydroxypropylcellulose) (HPC)): 114 % of control
- T/C (dose: 200.0 mg/kg/injection, schedule: Q01DX009 (ip), vehicle: Klucel (hydroxypropylcellulose) (HPC)): 105 % of control

Compound: C=C1C[C@@H]2[C@H](C1=O)[C@@H]1CC[C@H]3O[C@]31C2(C)C
- T/C (dose: 50.0 mg/kg/injection, schedule: Q04DX002 (ip), vehicle: Klucel (hydroxypropylcellulose) (HPC)): 106 % of control
- T/C (dose: 100.0 mg/kg/injection, schedule: Q04DX002 (ip), vehicle: Klucel (hydroxypropylcellulose) (HPC)): 101 % of control
- T/C (dose: 200.0 mg/kg/injection, schedule: Q04DX002 (ip), vehicle: Klucel (hydroxypropylcellulose) (HPC)): 100 % of control

Compound: CC(C)CC[NH-].CC(C)CC[NH-].[Cl][Pt+2]([Cl])([Cl])[Cl]
- T/C [4]: 176 % of control

Compound: CC[As](CC)SC1OC(COC(C)=O)C(OC(C)=O)C(OC(C)=O)C1OC(C)=O (stereo unspecified)
- T/C (dose: 50.0 mg/kg/injection, schedule: Q01DX009 (ip), vehicle: saline + alcohol): 116 % of control
- T/C [3]: 108 % of control
- T/C (dose: 100.0 mg/kg/injection, schedule: Q01DX009 (ip), vehicle: saline + alcohol): 180 % of control
- T/C [4]: 115 % of control
- T/C (dose: 200.0 mg/kg/injection, schedule: Q01DX009 (ip), vehicle: saline + alcohol): 181 % of control
- T/C (dose: 200.0 mg/kg/injection, schedule: Q01DX009 (ip), vehicle: saline with Tween-80): 96 % of control
- T/C (dose: 400.0 mg/kg/injection, schedule: Q01DX009 (ip), vehicle: saline with Tween-80): 102 % of control

Compound: COC(=O)Nc1nc2ccc(C3(c4ccc(F)cc4)OCCO3)cc2[nH]1
- T/C (dose: 25.0 mg/kg/injection, schedule: Q01DX009 (oral), vehicle: saline): 103 % of control
- T/C (dose: 50.0 mg/kg/injection, schedule: Q01DX009 (oral), vehicle: saline): 119 % of control
- T/C (dose: 50.0 mg/kg/injection, schedule: Q04DX003 (ip), vehicle: saline): 168 % of control
- T/C (dose: 60.0 mg/kg/injection, schedule: Q04DX003 (ip), vehicle: saline): 155 % of control and 192 % of control
- T/C (dose: 70.0 mg/kg/injection, schedule: Q04DX003 (ip), vehicle: saline): 208 % of control

Compound: O=C(O)c1cccc([N+](=O)[O-])c1C(=O)O
- T/C (dose: 25.0 mg/kg/injection, schedule: Q04DX003 (ip), vehicle: saline with Tween-80): 103 % of control
- T/C (dose: 50.0 mg/kg/injection, schedule: Q04DX003 (ip), vehicle: saline with Tween-80): 108 % of control
- T/C (dose: 100.0 mg/kg/injection, schedule: Q04DX003 (ip), vehicle: saline with Tween-80): 103 % of control
- T/C (dose: 200.0 mg/kg/injection, schedule: Q04DX003 (ip), vehicle: saline with Tween-80): 94 % of control

Compound: Cc1nccn1Cc1ccc(Cl)cc1Cl
- T/C [5]: 95 % of control
- T/C [6]: 95 % of control

Compound: Cc1nc2c([N+](=O)[O-])cc(Cl)cc2[nH]1
- T/C (dose: 30.0 mg/kg/injection, schedule: Q01DX005 (ip), vehicle: Klucel (hydroxypropylcellulose) (HPC)): 107 % of control
- T/C (dose: 60.0 mg/kg/injection, schedule: Q01DX005 (ip), vehicle: Klucel (hydroxypropylcellulose) (HPC)): 107 % of control
- T/C (dose: 120.0 mg/kg/injection, schedule: Q01DX005 (ip), vehicle: Klucel (hydroxypropylcellulose) (HPC)): 103 % of control

Compound: O=NCC(=O)OCc1ccccc1
- T/C (dose: 12.5 mg/kg/injection, schedule: Q01DX009 (ip), vehicle: water): 95 % of control
- T/C (dose: 25.0 mg/kg/injection, schedule: Q01DX009 (ip), vehicle: water): 87 % of control
- T/C (dose: 50.0 mg/kg/injection, schedule: Q01DX009 (ip), vehicle: water): 95 % of control
- T/C (dose: 100.0 mg/kg/injection, schedule: Q01DX009 (ip), vehicle: water): 99 % of control
- T/C (dose: 200.0 mg/kg/injection, schedule: Q01DX009 (ip), vehicle: water): 99 % of control

Compound: O=C1C(Cl)=C(NCCC2CCCN3CCCCC23)C(=O)c2ccccc21 (stereo unspecified)
- T/C (dose: 12.5 mg/kg/injection, schedule: Q01DX005 (ip), vehicle: Klucel (hydroxypropylcellulose) (HPC)): 99 % of control and 101 % of control and 93 % of control
- T/C (dose: 25.0 mg/kg/injection, schedule: Q01DX005 (ip), vehicle: Klucel (hydroxypropylcellulose) (HPC)): 98 % of control and 99 % of control and 97 % of control
- T/C (dose: 100.0 mg/kg/injection, schedule: Q01DX005 (ip), vehicle: Klucel (hydroxypropylcellulose) (HPC)): 109 % of control and 111 % of control

Compound: COc1ccc2c(c1OC)C[N+]1([O-])CCc3cc4c(cc3C1C2)OCO4 (stereo unspecified)
- T/C (dose: 0.63 mg/kg/injection, schedule: Q01DX009 (ip), vehicle: distilled water + Tween-80): 91 % of control
- T/C (dose: 1.25 mg/kg/injection, schedule: Q01DX009 (ip), vehicle: distilled water + Tween-80): 92 % of control
- T/C (dose: 2.5 mg/kg/injection, schedule: Q01DX009 (ip), vehicle: distilled water + Tween-80): 92 % of control
- T/C (dose: 5.0 mg/kg/injection, schedule: Q01DX009 (ip), vehicle: distilled water + Tween-80): 90 % of control
- T/C (dose: 10.0 mg/kg/injection, schedule: Q01DX009 (ip), vehicle: distilled water + Tween-80): 97 % of control
- T/C (dose: 20.0 mg/kg/injection, schedule: Q01DX009 (ip), vehicle: distilled water + Tween-80): 106 % of control

Compound: Clc1nc(C(Cl)Cl)nc2ccccc12
- T/C (dose: 30.0 mg/kg/injection, schedule: Q01DX005 (ip), vehicle: saline with Tween-80): 106 % of control
- T/C [5]: 110 % of control and 111 % of control
- T/C [6]: 111 % of control and 113 % of control

Compound: O=C(O)c1ccc(C(Cl)(Cl)Cl)cc1
- T/C (dose: 100.0 mg/kg/injection, schedule: Q04DX003 (ip), vehicle: saline sonified): 113 % of control
- T/C (dose: 200.0 mg/kg/injection, schedule: Q04DX003 (ip), vehicle: saline sonified): 113 % of control
- T/C (dose: 400.0 mg/kg/injection, schedule: Q04DX003 (ip), vehicle: saline sonified): 113 % of control
